In patent publication US10266523B2, “Crystaline forms of N-[6-(cis-2,6-dimethylmorpholine-4-yl)pyridine-3-yl]-2-Methyl-4′-(trifluoromethoxy) [1,1′-biphenyl]-3-Methanamide monophosphate, and process of preparation thereof” (CRYSTAL PHARMATECH CO., LTD., priority 2015, dated 2019):
Entries after “also recorded” stand apart in the source; their conditions may differ. Read-outs that look alike come from different tables or passages of the source.

Key:
[1] = Solid-state storage stability, form change detected by XRPD; assay type: physicochemical; settings: 120 days
Excerpt: The samples after storage were detected by XRPD.

[2] = Stability of crystalline forms in water and simulated biological media (saturated solution, XRPD of solid); assay type: physicochemical; settings: for Final form: SGF, listed as Crystalline Form A of monophosphate
Method: After being equilibrated for 1 hour, 4 hours and 24 hours, a small amount solid of each saturated solution was carried out for XRPD test, the testing result is shown in table 9, and the XRPD contrast diagram after 1 hour is shown in FIG. 9, wherein a is starting form of diphosphonate, b is monophosphate Form B of the present disclosure, c is the crystalline form of the diphosphonate after 1 hour in water, d is the crystalline form of the diphosphonate after 1 hour in SGF, e is the crystalline form of the diphosphonate after 1 hour in the FaSSIF, and f is the crystalline form of the diphosphonate after 1 hour in FeSSIF.

[3] = cited from earlier work
[4] = Hygroscopicity assessment by dynamic vapor sorption (DVS); assay type: physicochemical; settings: 25° C.; for Weight Gain at 80% Relative Humidity: DVS, 10 mg
Method: Dynamic Vapor Sorption (DVS) is measured via a SMS (Surface Measurement Systems) DVS Intrinsic, using 10 mg of crystalline form. Typical Parameters for DVS test are listed below: Temperature: 25° C. Gas and flow rate: N2, 200 mL/min dm/dt: 0.002%/min RH range: 0% RH to 95% RH Stable duration: 10 min Maximum equilibrate time: 180 min Humidity gradient: 10%(0% RH-90% RH), 5%(90% RH-95% RH), Hygroscopicity of 10 mg of monophosphate Form A of compound of formula (I) was tested using dynamic vapor sorption (DVS). About hygroscopicity characterization description and definition of hygroscopicity (Chinese Pharmacopoeia 2010 edition appendix XIXJ Drug hygroscopic test guidelines, test at 25° C.+/−1° C., 80% Relative Humidity) • deliquescent: sufficient water is absorbed to form a liquid. • very hygroscopic: increase in mass is equal to or greater than 15%. • hygroscopic: increase in mass is less than 15% and equal to or greater than 2%. • slightly hygroscopic: increase in mass is less than 2% and equal to or greater than 0.2%. • no or almost no hygroscopic: increase in mass is less than 0.2%.

[5] = Particle size distribution test (Microtrac S3500 laser particle size analyzer, wet process); assay type: physicochemical; settings: for MV (average particle size calculated by volume): dispersion medium Isopar G; for D10 / D50 / D90: volume distribution, Isopar G
Method: The particle size distribution test in the present disclosure is acquired by the S3500 laser particle size analyzer of Microtrac. Microtrac S3500 is equipped with the Sample Delivery Controller. The test is carried out by wet process, and the dispersion medium is Isopar G The parameters are as follow: [table] 10-30 mg sample was dispersed with 10 mL Isopar G (containing 0.2% of lecithin). The sample is added into the SDC sample injection system when fully mixed. Start the experiment when the sample amount indication chart reaches a proper position. The result of particle size distribution test is shown in table 13, the particle size distribution diagram of the Form A is shown in FIG. 10, and the particle size distribution diagram of the Form B of monophosphate is shown in FIG. 11.

[6] = listed as Crystalline Form A of monophosphate
[7] = listed as Crystalline Form B of monophosphate

Cc1c(C(=O)Nc2ccc(N3C[C@@H](C)O[C@@H](C)C3)nc2)cccc1-c1ccc(OC(F)(F)F)cc1.O=P(O)(O)O.O=P(O)(O)O [Diphosphonate in CN102159570, reference compound]
Form Change ([1]; 5° C.): Diphosphonate
Form Change ([1]; 25° C./60% RH): Diphosphonate
Form Change ([1]; 40° C./75% RH, listed as diphosphonate in CN102159570): partly changed into Form B
form conversion in media ([2]; four media, equilibrated for 1 hour): convert into Form B of monophosphate
XRPD of the crystalline form after storage ([3]; 50° C./75% RH, 2 weeks): slightly changed
XRPD of the crystalline form after storage ([3]; 80° C./75% RH, two weeks): changed

Cc1c(C(=O)Nc2ccc(N3CC(C)OC(C)C3)nc2)cccc1-c1ccc(OC(F)(F)F)cc1 (stereo not drawn) [Form A, N-[6-(cis-2,6-dimethylmorpholine-4-yl)pyridine-3-yl]-2-methyl-4′-(trifluoromethoxy) [1,1′-biphenyl]-3-carboxamide monophosphate]
hygroscopicity class (Chinese Pharmacopoeia 2010 definition) ([4]; 80% Relative Humidity): slightly hygroscopic (increase in mass is less than 2% and equal to or greater than 0.2%)
Weight Gain at 80% Relative Humidity [4]: 0.59%
Weight Gain at 80% Relative Humidity ([4]; listed as monophosphate Form A): 0.59%
Form Change ([1]; 5° C.): Form A
Form Change ([1]; 25° C./60% RH): Form A
Form Change ([1]; 40° C./75% RH): Form A and Form B
Final form ([2]; equilibrium time 1 h): Changed
Final form ([2]; equilibrium time 4 h): Changed
Final form ([2]; equilibrium time 24 h): Changed
stability of crystalline form in media ([2]; water, FaSSIF and FeSSIF, after 1, 4, and 24 hours): stable
particle size homogeneity and dispersion [5]: homogeneous particle size and good dispersion
MV (average particle size calculated by volume) [5, 6]: 136.5 um
D10 [5, 6]: 22.7 um
D50 [5, 6]: 100.2 um
D90 [5, 6]: 305.2 um

Cc1c(C(=O)Nc2ccc(N3CC(C)OC(C)C3)nc2)cccc1-c1ccc(OC(F)(F)F)cc1 (stereo not drawn) [Form B, N-[6-(cis-2,6-dimethylmorpholine-4-yl)pyridine-3-yl]-2-methyl-4′-(trifluoromethoxy) [1,1′-biphenyl]-3-carboxamide monophosphate]
Form Change ([1]; 5° C.): Form B
Form Change ([1]; 25° C./60% RH): Form B
Form Change ([1]; 40° C./75% RH): remains unchanged; also recorded: Form B
stability of crystalline form in media ([2]; all of the four kinds of media (water, SGF, FaSSIF, FeSSIF)): do not change
particle size homogeneity and dispersion [5]: homogeneous particle size and good dispersion
MV (average particle size calculated by volume) [5, 7]: 55.4 um
D10 [5, 7]: 8.8 um
D50 [5, 7]: 37.5 um
D90 [5, 7]: 124.2 um
